We go through three compounds from patent publication US20120093917A1, “METNASE AND INTNASE INHIBITORS AND THEIR USE IN TREATING CANCER” (priority 2009, published 2012).

Common to all, as to format: cell-based
In series [1] the test system is human Pancreatic cancer cell line BXPC3. Nature of the series: Colony formation assay, pancreatic cancer cell line BXPC3. To be noted: summary table / FIG. 34. As to the method:
(§1) The human Pancreatic cancer cell line BXPC3 was plated (4000 cells per plate with a ˜10% plating efficiency) in 10 cm dishes, using 10 ml of RPMI media (always with 10% FBS) per plate, and placed in a […] incubator (5% CO2) for 24 hrs. After 24 hrs, each plate was treated with one or a combination of the following agents: DMSO (0.2% in solution), 0.3 μg/ml of gemcitabine (dissolved in 1×PBS), and/or 2 μM of each Metnase/Intnase inhibitor (dissolved in DMSO). When the DMSO, gemcitabine, and/or inhibitors were added, the plates were swirled several times to assure mixing. After the agents were added to the RPMI, the plates were put back into the incubators for 18 hrs. Following 18 hrs treatment, the media was removed and the cells were washed twice with 1×PBS. Ten ml of fresh RPMI with 10% FBS was added and the cells were placed back into the incubator for 14 days. After the incubation period that will allow surviving cells to form colonies, the media was discarded and surviving colonies were stained with methylene blue. Colonies, a reflection of a single surviving cell that expanded, were counted to measure survival. All experiments were run in triplicate. Experiments were normalized to either DMSO (black asterices) or gemcitabine (red asterices).

For the next series, the system named is cancer cells. Nature of the series: Summary statements: cytotoxicity for cancer cells alone and with chemotherapy. The settings on record: summary statement referring to figures. As to the method:
as §1
The human colon cancer cell line SW48 was plated (1000 cells per plate with a ˜20% plating efficiency) in 10 cm dishes, using 10 ml of DMEM media (always with 10% FBS) per plate, and placed in a […] incubator (5% CO2) for 24 hrs. After 24 hr, each plate was treated with one or a combination of the following agents: DMSO (0.2% in solution), 3 μM 5-fluorouracil (5FU, dissolved in 1×PBS), and/or 2 μM of each Metnase/intnase inhibitor (dissolved in DMSO). When the DMSO, 5FU, and/or inhibitors were added, the plates were swirled several times to assure mixing. After agents were added to the DMEM, the plates were put back into the incubators for 18 hr. Following 18 hr treatment, the media was removed and the cells were washed twice with 1×PBS. Ten milliliters of fresh DMEM was added and the cells were placed back into the incubator for 7-14 days. After the incubation period that will allow surviving cells to grow and form colonies, media was discarded and surviving colonies were stained with methylene blue. Colonies, a reflection of a single surviving cell that expanded, were counted to measure survival. All experiments were run in triplicate. Experiments were normalized to either DMSO (black asterices) or 5FU (red asterices).
(§2) The human myeloid cell line KG-1 was grown in RPMI1640 with 10% FBS. The small cell lung cancer cell line CRL5898 was grown in HITES medium (Dulbecco's medium: Ham's F12, 50:50 mix, Insulin 0.005 mg/ml Transferrin 0.01 mg/ml Sodium selenite 30 nM Hydrocortisone 10 nM beta-estradiol 10 nM HEPES 10 mM L-glutamine 2 mM (in addition to that in the base medium)). Both cell lines were seeded at 10,000 cells/ml in the appropriate medium in 6 well plates. The Chem Div compounds were resuspended as 5 mM stock solutions in DMSO. The Chem Div compounds were added alone at 2 uM and 5 uM or in combination with VP-16 (also called etoposide) at 0.05 uM. DMSO was added to the control wells. Cells were plated and treated in triplicate and counted daily for 4 days.

Series [2] has as its system human myeloid cell line KG-1. The series is described as follows: Leukemia cell line KG-1 growth curve, alone or with VP-16. The settings on record: for effect of compound alone on KG-1 growth, high dose: high (higher) dose of compound (added at 2 uM and 5 uM); for effect of compound alone on KG-1 growth, high dose / potentiation of low dose VP-16 on KG-1 growth, high dose of compound / effect of compound alone on KG-1 growth, lower/low dose / potentiation of low dose VP-16 on KG-1 growth, lower/low dose of compound: counted daily for 4 days; for potentiation of low dose VP-16 on KG-1 growth, high dose of compound: high (higher) dose of compound + VP-16 0.05 uM; for effect of compound alone on KG-1 growth, lower/low dose: lower (low) dose of compound (added at 2 uM and 5 uM); for potentiation of low dose VP-16 on KG-1 growth, lower/low dose of compound: lower (low) dose of compound + VP-16 0.05 uM; for KG-1 Leukemia potency / KG-1 Leukemia cooperativity with VP-16: summary table / FIG. 34. As to the method:
as §2

Series [3] concerns small cell lung cancer cell line CRL5898. The series is described as follows: Small cell lung cancer cell line CRL5898 growth, alone or with VP-16. The settings on record: for CLR5898 Small Cell Lung Cancer cooperativity with VP-16 / CLR5898 Small Cell Lung Cancer potency: summary table / FIG. 34. As to the method: as §2

SMILES strings stand for the structures.

`CCn1cc(C(C)=O)c(=O)c2cc(F)c(N3CCN(C(=O)c4ccc(Cl)cc4)CC3)cc21` [5076-4170]: the “BxPC3 Pancreatic activity” value in series [1] was “inactive”. Also, in the series on cancer cells, the “cytotoxicity for cancer cells with chemotherapy agents (potentiation)” value is given as “increased the cytotoxicity of chemotherapy when added” and the “cytotoxicity for cancer cells, compound alone” value (“cytotoxicity … compound alone” for short) is “cytotxoic for cancer cells alone”. Besides, in series [2], the “effect of compound alone on KG-1 growth, high dose” value (from here on “effect … high dose”) was “slowed the growth of the leukemia cell line KG-1 and caused cell death with prolonged treatment”; the “potentiation of low dose VP-16 on KG-1 growth, high dose of compound” value (shortened to “potentiation … high dose of compound”) was “some potentiation on the anti-proliferative effect of low dose VP-16”; the “effect of compound alone on KG-1 growth, lower/low dose” value (from here on “effect … lower/low dose”) was “slowed the growth of the leukemia cell line KG-1 and caused cell death with prolonged treatment”; the “potentiation of low dose VP-16 on KG-1 growth, lower/low dose of compound” value (“potentiation … lower/low dose of compound” below) was “some potentiation on the anti-proliferative effect of low dose VP-16”. Moreover, in series [2], the “KG-1 Leukemia potency” value was “High potency, probably below 1 uM”.

`CCn1cc(C(=O)O)c(=O)c2cc(F)c(N3CCN(C(=O)c4ccc(OC(C)=O)cc4)CC3)cc21` [5082-2438]: the “BxPC3 Pancreatic activity” value in series [1] is recorded as “weak”. In series [3], the “CLR5898 Small Cell Lung Cancer cooperativity with VP-16” value is “No or very” and the “CLR5898 Small Cell Lung Cancer potency” value is listed as “Potency in uM”. Moreover, in the series on cancer cells, the “cytotoxicity for cancer cells with chemotherapy agents (potentiation)” value is listed as “increased the cytotoxicity of chemotherapy when added” and the “cytotoxicity … compound alone” value is “cytotxoic for cancer cells alone”. Further, in series [2], the “effect … high dose” value is on record as “decreased KG-1 leukemia cell growth, similar to low dose VP-16 alone”; the “potentiation … high dose of compound” value is “potentiated the anti-proliferative effect of low dose VP-16 and prolonged treatment resulted in cell death”; the “effect … lower/low dose” value is “decreased KG-1 leukemia cell growth, similar to low dose VP-16 alone”; the “potentiation … lower/low dose of compound” value was “potentiated the effect of low dose VP-16 and prolonged treatment resulted in cell death”. In addition, in series [2], the “KG-1 Leukemia cooperativity with VP-16” value was “Cooperativity with VP-16” and the “KG-1 Leukemia potency” value is given as “Potency in uM”.

As for `Cc1ccc(NCC(=O)Nc2cccc(C(=O)O)c2O)cc1` [8017-3379], in series [1], the “BxPC3 Pancreatic activity” value was “inactive”. Also, in series [3] (FIG. 33), the “potentiation of low dose VP-16 on CRL5898 cell growth” value is “some potentiation of the anti-proliferative effect of low dose VP-16”. Besides, the “effect of compound alone on CRL5898 cell growth” value in series [3] (FIG. 33, compared with low dose VP-16) is listed as “inhibited cell growth of the small cell lung cancer cell line CRL5898, the same as low dose VP-16”. In addition, in series [3], the “CLR5898 Small Cell Lung Cancer cooperativity with VP-16” value is listed as “No or very” and the “CLR5898 Small Cell Lung Cancer potency” value was “Potency in uM”. In addition, in the series with cancer cells, the “cytotoxicity … compound alone” value is on record as “cytotxoic for cancer cells alone”. Besides, in series [2], the “effect … high dose” value was “inhibited KG-1 leukemia cell growth even more than low dose VP-16 alone”; the “potentiation … high dose of compound” value is on record as “no potentiation on the effect of low dose VP-16”; the “effect … lower/low dose” value is “inhibited KG-1 leukemia cell growth even more than low dose VP-16 alone”; the “potentiation … lower/low dose of compound” value is “no potentiation on the effect of low dose VP-16”. In series [2], the “KG-1 Leukemia cooperativity with VP-16” value is “No or very weak” and the “KG-1 Leukemia potency” value is on record as “Potency in uM”.
